Experimental data taken from US20240309015A1, “Methods for the Treatment of Fibrotic Disease” (SHY Therapeutics, LLC, priority 2021, published 2024).

Columns and labels:
[1] = tested on: Smad2/3 phosphorylation; experiment: Phospho-Smad2/3 Inhibition Assay in PANC-1; format: cell-based; conditions: Homo sapiens; 10 μM compound, 3 h; TGF-b1 stimulated PANC-1; western blot; read-out: % inh of Smad2/3 phosphorylation in PANC-1
In short: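 Serum-starved cells (0.5% FBS overnight) pretreated 3 h at 37 °C with compound at 10 μM or serial dilutions for IC50, in 0.3% DMSO. TGF-b1 10 ng/ml stimulation: 1 h for Panc-1 (human), 20 min for C2C12 (mouse). Phospho-Smad2 (Ser465/467) and phospho-Smad3 (Ser423/425) measured by western blot of lysates.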

[2] = tested on: IL-6; experiment: Mouse IL6 Quantification Assay (LPS-stimulated RAW 264.7); format: cell-based; parameters: dose or concentration left out as unconfirmed; conditions: RAW264.7, ELISA, read-out: IL-6: % inh.
[3] = tested on: TNFα; experiment: Mouse TNF Alpha Quantification Assay (LPS-stimulated RAW 264.7); format: cell-based; parameters: dose or concentration left out as unconfirmed; conditions: RAW264.7, ELISA, read-out: TNFα: % inh.
[4] = tested on: KRas wild type; experiment: Ras GTP Binding Domain Inhibition Assay, KRas wild type; conditions: at 20 μM; for KRas wild type + SOS: % inh.: with SOS; for KRas wild type: % inh.: without SOS
In short: (§1)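 Compounds were tested at 20 μM final, or as dilution series for IC50, against nickel-plate-captured His-tagged GTPase proteins for 3 h at room temperature. Sos exchange factor could be present for the last hour. Labelled GTP (100 nM Cy3 or Cy5) was then bound for 45 min, wells were washed, and retained fluorescence was measured.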

[5] = tested on: KRas G12D mutant; experiment: Ras GTP Binding Domain Inhibition Assay, KRas G12D mutant; conditions: at 20 μM; for KRas G12D mutant + SOS: % inh.: with SOS; for KRas G12D mutant: % inh.: without SOS
In short: as §1

[6] = tested on: KRas G12C mutant; experiment: Ras GTP Binding Domain Inhibition Assay, KRas G12C mutant; conditions: at 20 μM; for KRas G12C mutant + SOS: % inh.: with SOS; for KRas G12C mutant: % inh.: without SOS
In short: as §1

[7] = tested on: Rho-A; experiment: Ras GTP Binding Domain Inhibition Assay, Rho-A; conditions: at 20 μM; without SOS
In short: as §1

COc1cc(Nc2nc(-c3nccn3C)nc3sc(-c4ccn(C(C)C)n4)c(C)c23)ncn1 [Compound 19, 6-(1-Isopropyl-1H-pyrazol-3-yl)-N-(6-methoxypyrimidin-4-yl)-5-methyl-2-(1-methyl-1H-imidazol-2-yl)thieno[2,3-d]pyrimidin-4-amine]
inhibition at 10 µM [1]: 76 to 100%
inhibition [2]: 76 to 100%
inhibition [3]: 76 to 100%
KRas wild type + SOS: % inh. [4]: D (D = 76-100% inhibition)
KRas wild type: % inh. [4]: D (D = 76-100% inhibition)
KRas G12D mutant + SOS: % inh. ([5]; Table 7): C (C = 46-75% inhibition)
KRas G12D mutant + SOS: % inh. ([5]; Table 8): C (C = 46-75% inhibition)
KRas G12D mutant: % inh. ([5]; Table 7): B (B = 26-45% inhibition)
KRas G12D mutant: % inh. ([5]; Table 8): B (B = 26-45% inhibition)
KRas G12C mutant + SOS: % inh. [6]: D (D = 76-100% inhibition)
KRas G12C mutant: % inh. [6]: C (C = 46-75% inhibition)
Rho-A: % inh. [7]: D (D = 76-100% inhibition)

Cc1c(-c2ccn(C(C)C)n2)sc2nc(-c3nccn3C)nc(NCCN3CCS(=O)(=O)CC3)c12 [Compound 23, 4-(2-((6-(1-Isopropyl-1H-pyrazol-3-yl)-5-methyl-2-(1-methyl-1H-imidazol-2-yl)thieno[2,3-d]pyrimidin-4-yl)amino)ethyl)thiomorpholine 1,1-dioxide]
inhibition at 10 µM [1]: 0%
inhibition [2]: 46 to 75%
inhibition [3]: 0%
KRas wild type + SOS: % inh. [4]: D (D = 76-100% inhibition)
KRas wild type: % inh. [4]: D (D = 76-100% inhibition)
KRas G12D mutant + SOS: % inh. ([5]; Table 7): D (D = 76-100% inhibition)
KRas G12D mutant + SOS: % inh. ([5]; Table 8): D (D = 76-100% inhibition)
KRas G12D mutant: % inh. ([5]; Table 7): D (D = 76-100% inhibition)
KRas G12D mutant: % inh. ([5]; Table 8): D (D = 76-100% inhibition)
KRas G12C mutant + SOS: % inh. [6]: D (D = 76-100% inhibition)
KRas G12C mutant: % inh. [6]: C (C = 46-75% inhibition)
Rho-A: % inh. [7]: C (C = 46-75% inhibition)

COc1cccc(-c2sc3nc(-c4nccn4C)nc(N[C@H]4C[C@H](OC)C4)c3c2-c2ccccc2)c1F [Compound 40, 6-(2-Fluoro-3-methoxyphenyl)-N-((1r,3r)-3-methoxycyclobutyl)-2-(1-methyl-1H-imidazol-2-yl)-5-phenylthieno[2,3-d]pyrimidin-4-amine]
inhibition at 10 µM [1]: 76 to 100%
inhibition [2]: 76 to 100%
inhibition [3]: 76 to 100%
KRas wild type + SOS: % inh. [4]: D (D = 76-100% inhibition)
KRas wild type: % inh. [4]: C (C = 46-75% inhibition)
KRas G12D mutant + SOS: % inh. ([5]; Table 7): D (D = 76-100% inhibition)
KRas G12D mutant + SOS: % inh. ([5]; Table 8): D (D = 76-100% inhibition)
KRas G12D mutant: % inh. ([5]; Table 7): C (C = 46-75% inhibition)
KRas G12D mutant: % inh. ([5]; Table 8): C (C = 46-75% inhibition)
KRas G12C mutant + SOS: % inh. [6]: D (D = 76-100% inhibition)
KRas G12C mutant: % inh. [6]: C (C = 46-75% inhibition)
Rho-A: % inh. [7]: B (B = 26-45% inhibition)

COc1cccc(Nc2nc(-c3nccn3C)nc3sc(-c4ccn(C(C)C)n4)c(C)c23)c1 [Compound 17, 6-(1-Isopropyl-1H-pyrazol-3-yl)-N-(3-methoxyphenyl)-5-methyl-2-(1-methyl-1H-imidazol-2-yl)thieno[2,3-d]pyrimidin-4-amine]
inhibition at 10 µM [1]: 46 to 75%
inhibition [2]: 76 to 100%
inhibition [3]: 76 to 100%
KRas wild type + SOS: % inh. [4]: C (C = 46-75% inhibition)
KRas wild type: % inh. [4]: B (B = 26-45% inhibition)
KRas G12D mutant + SOS: % inh. ([5]; Table 7): C (C = 46-75% inhibition)
KRas G12D mutant + SOS: % inh. ([5]; Table 8): C (C = 46-75% inhibition)
KRas G12D mutant: % inh. ([5]; Table 7): C (C = 46-75% inhibition)
KRas G12D mutant: % inh. ([5]; Table 8): C (C = 46-75% inhibition)
KRas G12C mutant + SOS: % inh. [6]: D (D = 76-100% inhibition)
KRas G12C mutant: % inh. [6]: C (C = 46-75% inhibition)
Rho-A: % inh. [7]: C (C = 46-75% inhibition)

Cc1c(-c2ccn(C(C)C)n2)sc2nc(-c3nccn3C)nc(NCC3CN(C)CCO3)c12 (racemic) [Compound 25, rac-6-(1-Isopropyl-1H-pyrazol-3-yl)-5-methyl-2-(1-methyl-1H-imidazol-2-yl)-N-((4-methylmorpholin-2-yl)methyl)thieno[2,3-d]pyrimidin-4-amine]
inhibition at 10 µM [1]: 0%
inhibition [2]: 76 to 100%
inhibition [3]: 46 to 75%
KRas wild type + SOS: % inh. [4]: D (D = 76-100% inhibition)
KRas wild type: % inh. [4]: D (D = 76-100% inhibition)
KRas G12D mutant + SOS: % inh. ([5]; Table 7): D (D = 76-100% inhibition)
KRas G12D mutant + SOS: % inh. ([5]; Table 8): D (D = 76-100% inhibition)
KRas G12D mutant: % inh. ([5]; Table 7): D (D = 76-100% inhibition)
KRas G12D mutant: % inh. ([5]; Table 8): D (D = 76-100% inhibition)
KRas G12C mutant + SOS: % inh. [6]: D (D = 76-100% inhibition)
KRas G12C mutant: % inh. [6]: D (D = 76-100% inhibition)
Rho-A: % inh. [7]: D (D = 76-100% inhibition)

COCCn1ccc(-c2sc3nc(-c4nccn4C)nc(NC[C@H]4CC[C@H]4COC)c3c2C)n1 (racemic) [Compound 38, rac-6-(1-(2-Methoxyethyl)-1H-pyrazol-3-yl)-N-(((1S,2R)-2-(methoxymethyl)cyclobutyl)methyl)-5-methyl-2-(1-methyl-1H-imidazol-2-yl)thieno[2,3-d]pyrimidin-4-amine]
inhibition at 10 µM [1]: 46 to 75%
inhibition [2]: 76 to 100%
inhibition [3]: 76 to 100%
KRas wild type + SOS: % inh. [4]: D (D = 76-100% inhibition)
KRas wild type: % inh. [4]: C (C = 46-75% inhibition)
KRas G12D mutant + SOS: % inh. ([5]; Table 7): D (D = 76-100% inhibition)
KRas G12D mutant + SOS: % inh. ([5]; Table 8): D (D = 76-100% inhibition)
KRas G12D mutant: % inh. ([5]; Table 7): B (B = 26-45% inhibition)
KRas G12D mutant: % inh. ([5]; Table 8): B (B = 26-45% inhibition)
KRas G12C mutant + SOS: % inh. [6]: D (D = 76-100% inhibition)
KRas G12C mutant: % inh. [6]: C (C = 46-75% inhibition)
Rho-A: % inh. [7]: B (B = 26-45% inhibition)

COCCCn1c(-c2nccn2C)nc2sc(-c3ccn(C(C)C)n3)c(C)c2c1=O [Compound 31, 6-(1-Isopropyl-1H-pyrazol-3-yl)-3-(3-methoxypropyl)-5-methyl-2-(1-methyl-1H-imidazol-2-yl)thieno[2,3-d]pyrimidin-4(3H)-one]
inhibition at 10 µM [1]: 0%
inhibition [2]: 46 to 75%
inhibition [3]: 0%
KRas wild type + SOS: % inh. [4]: A (A = 1-25% inhibition)
KRas wild type: % inh. [4]: A (A = 1-25% inhibition)
KRas G12D mutant + SOS: % inh. ([5]; Table 7): 0 (0 = 0% inhibition)
KRas G12D mutant + SOS: % inh. ([5]; Table 8): 0 (0 = 0% inhibition)
KRas G12D mutant: % inh. ([5]; Table 7): 0 (0 = 0% inhibition)
KRas G12D mutant: % inh. ([5]; Table 8): 0 (0 = 0% inhibition)
KRas G12C mutant + SOS: % inh. [6]: 0 (0 = 0% inhibition)
KRas G12C mutant: % inh. [6]: 0 (0 = 0% inhibition)
Rho-A: % inh. [7]: 0 (0 = 0% inhibition)

COCCn1c(-c2nccn2C)nc2sc(-c3ccn(C(C)C)n3)c(C)c2c1=O [Compound 29, 6-(1-Isopropyl-1H-pyrazol-3-yl)-3-(2-methoxyethyl)-5-methyl-2-(1-methyl-1H-imidazol-2-yl)thieno[2,3-d]pyrimidin-4(3H)-one]
inhibition at 10 µM [1]: 0%
inhibition [2]: 76 to 100%
inhibition [3]: 76 to 100%
KRas wild type + SOS: % inh. [4]: D (D = 76-100% inhibition)
KRas wild type: % inh. [4]: D (D = 76-100% inhibition)
KRas G12D mutant + SOS: % inh. ([5]; Table 7): C (C = 46-75% inhibition)
KRas G12D mutant + SOS: % inh. ([5]; Table 8): C (C = 46-75% inhibition)
KRas G12D mutant: % inh. ([5]; Table 7): C (C = 46-75% inhibition)
KRas G12D mutant: % inh. ([5]; Table 8): C (C = 46-75% inhibition)
KRas G12C mutant + SOS: % inh. [6]: D (D = 76-100% inhibition)
KRas G12C mutant: % inh. [6]: C (C = 46-75% inhibition)
Rho-A: % inh. [7]: D (D = 76-100% inhibition)
